# In patent US8609635B2, “Fused tricyclic silyl compounds and methods of use thereof for the treatment of viral diseases” (priority 2010, dated 2013):
# Tests used:
# [1] = test system: HCV chimeric replicon with NS5A of genotype 4a (DQ41878); assay: Cell-based HCV replicon assay (TaqMan), chimeric replicon genotype 4a (DQ41878); details: Hepatitis C virus, 72 h, read-out: HCV replicon EC50 4a (DQ41878)
# Method: (§1) Measurement of inhibition by compounds of the present invention was performed using the HCV replicon system. Several different replicons encoding different HCV genotypes or mutations were used. In addition, potency measurements were made using different formats of the replicon assay, including different ways of measurements and different plating formats. See Jan M. Vrolijk et al., A replicons-based bioassay for the measurement of interferons in patients with chronic hepatitis C, 110 J. VIROLOGICAL METHODS 201 (2003); Steven S. Carroll et al., Inhibition of Hepatitis C Virus RNA Replication by 2′-Modified Nucleoside Analogs, 278(14) J. BIOLOGICAL […] 11979 (2003). However, the underlying principles are common to all of these determinations, and are outlined below.
# (§2) Compounds of the present invention were assayed for cell-based anti-HCV activity using the following protocol. Replicon cells were seeded at 5000 cells/well in 96-well collagen I-coated Nunc plates in the presence of the test compound. Various concentrations of test compound, typically in 10 serial 2-fold dilutions, were added to the assay mixture, with the starting concentration ranging from 250 μM to 1 μM. The final concentration of DMSO was 0.5%, fetal bovine serum was 5%, in the assay media. Cells were harvested on day 3 by the addition of 1× cell lysis buffer (Ambion cat #8721). The replicon RNA level was measured using real time PCR (TaqMan® assay). The amplicon was located in 5B. The PCR primers were: 5B.2F, […] (SEQ. ID NO. 1); 5B.2R, […] (SEQ. ID NO. 2); the probe sequence was FAM-labeled […] (SEQ. ID NO. 3). GAPDH RNA was used as endogenous control and was amplified in the same reaction as NS5B (multiplex PCR) using primers and VIC-labeled probe recommended by the manufacturer (PE Applied Biosystem). The real-time RT-PCR reactions were run on ABI PRISM 7900HT Sequence Detection System using the following program: 48° C. for 30 minutes, 95° C. for 10 minutes, 40 cycles of 95° C. for 15 sec, 60° C. for 1 minute. The ΔCT values (CT5B-CTGAPDH) were plotted against the concentration of test compound and fitted to the sigmoid dose-response model using XLfit4 (MDL). […] Alternatively, to quantitate the absolute amount of replicon RNA, a standard curve was established by including serially diluted T7 transcripts of replicon RNA in the Taqman assay. All TaqMan® reagents were from PE Applied Biosystems. Such an assay procedure was described in detail in e.g. Malcolm et al., Antimicrobial Agents and Chemotherapy 50: 1013-1020 (2006).
# (§3) Wherein gt1a_H77 was prepared as described in Yi et al., J Virol. 2004, 78(15):7904-15; gt1b_con1 was prepared as described in Lohmann et al., Science 1999, 285(5424):110-3; and gt2a_JFH was prepared as described in Kato et al., Gastroenterology. 2003, 125(6):1808-17. Chimeric replicons contain NS5A from patient isolates of genotypes 1a, 1b, 2b, 3a and 4a as indicated.
# [2] = test system: HCV replicon 1a (L31V) mutant; assay: Cell-based HCV replicon assay (TaqMan), genotype 1a mutant L31V; details: Hepatitis C virus, 72 h, read-out: HCV replicon EC50 1a (L31V)
# Method: as §1, §2, §3
# [3] = test system: HCV chimeric replicon with NS5A of genotype 3a (NC00982); assay: Cell-based HCV replicon assay (TaqMan), chimeric replicon genotype 3a (NC00982); details: Hepatitis C virus, 72 h, read-out: HCV replicon EC50 3a (NC00982), chimeric replicon 3a (NC00982); replicon RNA by TaqMan, day 3
# Method: as §1, §2, §3
# HCV replicon gt1b_con1 = assay: Cell-based HCV replicon assay (TaqMan), genotype 1b (Con1); details: Hepatitis C virus, 72 h; replicon 1b (Con1); replicon RNA by TaqMan, day 3
# Method: as §1, §2, §3
# HCV replicon gt1a_H77 = assay: Cell-based HCV replicon assay (TaqMan), genotype 1a (H77); details: Hepatitis C virus, 72 h, replicon 1a (H77); replicon RNA by TaqMan, day 3
# Method: as §1, §2, §3
# HCV replicon gt2a_JFH = assay: Cell-based HCV replicon assay (TaqMan), genotype 2a (JFH); details: Hepatitis C virus, 72 h, replicon 2a (JFH); replicon RNA by TaqMan, day 3
# Method: as §1, §2, §3
# [4] = test system: HCV replicon 1a (Y93H) mutant; assay: Cell-based HCV replicon assay (TaqMan), genotype 1a mutant Y93H; details: Hepatitis C virus, 72 h, read-out: HCV replicon EC50 1a (Y93H)
# Method: as §1, §2, §3
Compound,EC50 [1] [nM],EC50 [2] [nM],EC50 [3] [nM],EC50 (HCV replicon gt1b_con1) [pM],EC50 (HCV replicon gt1a_H77) [nM],EC50 (HCV replicon gt2a_JFH) [nM],EC50 [4] [nM]
COC(=O)N[C@H](C(=O)N1C[Si](C)(C)C[C@H]1c1ncc(-c2ccc(-c3ccc4c(ccc5nc([C@H]6[C@@H]7C[C@@H]([C@@H](F)[C@H]7F)N6C(=O)[C@@H](NC(=O)OC)C(C)C)[nH]c54)c3)cc2)[nH]1)C(C)C [Compound 102],0.3,113,7.5,< 2000,0.084,0.097,438
COC(=O)N[C@H](C(=O)N1CC(F)(F)C[C@H]1c1nc2ccc3cc(-c4ccc5c(ccc6nc([C@@H]7C[Si](C)(C)CN7C(=O)[C@@H](NC(=O)OC)C(C)C)[nH]c65)c4)ccc3c2[nH]1)C(C)C [Compound 70],0.077,,0.118,7,0.012,0.04,25
COC(=O)N[C@@H](C)C(=O)N1C[Si](C)(C)C[C@H]1c1ncc(-c2ccc(-c3ccc4c(ccc5nc([C@@H]6CC(F)(F)CN6C(=O)[C@@H](NC(=O)OC)C(C)C)[nH]c54)c3)cc2)[nH]1 [Compound 106],0.429,37.1,0.435,6,0.016,0.046,52.6
COC(=O)N[C@H](C(=O)N1C[Si]2(CCCC2)C[C@H]1c1ncc(-c2ccc(-c3ccc4c(ccc5nc([C@@H]6CC(F)(F)CN6C(=O)[C@@H](NC(=O)OC)C(C)C)[nH]c54)c3)cc2)[nH]1)C(C)C [Compound 89],0.035,,0.275,6,0.054,0.5,211
CC(C)OC(=O)N[C@H](C(=O)N1C[Si](C)(C)C[C@@H]1c1ncc(-c2ccc(-c3ccc4c(ccc5nc([C@H]6C[C@H](F)CN6C(=O)[C@@H](NC(=O)OC(C)C)C(C)C)[nH]c54)c3)c(F)c2)[nH]1)C(C)C [Compound 84],> 100,,> 100,2400,> 1,> 10,> 1000
COC(=O)N[C@H](C(=O)N1CC(F)(F)C[C@H]1c1ncc(-c2ccc(-c3ccc4c(ccc5nc([C@@H]6C[Si](C)(C)CN6C(=O)[C@@H](NC(=O)OC)C(C)C)[nH]c54)c3)c(F)c2)[nH]1)C(C)C [Compound 60],0.129,,2.9,3,0.06,0.09,96
COC(=O)N[C@H](C(=O)N1CC(F)(F)C[C@H]1c1nc2ccc3cc(-c4ccc(-c5cnc([C@@H]6C[Si](C)(C)CN6C(=O)[C@@H](NC(=O)OC)C6CC6)[nH]5)cc4)ccc3c2[nH]1)C(C)C [Compound 105],0.18,43,0.17,3,0.021,0.141,151
COC(=O)N[C@H](C(=O)N1CC[C@H](C)[C@H]1c1nc2ccc3cc(-c4ccc(-c5cnc([C@@H]6C[Si](C)(C)CN6C(=O)[C@@H](NC(=O)OC)C(C)C)[nH]5)cc4)ccc3c2[nH]1)C(C)C [Compound 95],1.22,9,0.066,15,> 0.1,0.032,210
CC(C)[C@H](NC(=O)OC1(C)CC1)C(=O)N1CCC(F)(F)C[C@H]1c1ncc(-c2ccc(-c3ccc4c(ccc5nc([C@@H]6C[Si](C)(C)CN6C(=O)[C@@H](NC(=O)OC6(C)CC6)C(C)C)[nH]c54)c3)cc2)[nH]1 [Compound 86],> 100,> 1000,> 100,141000,> 1,> 10,> 1000
COC(=O)N[C@H](C(=O)N1C[Si]2(CCCC2)C[C@H]1c1ncc(-c2ccc(-c3ccc4c(ccc5nc([C@@H]6CCCN6C(=O)[C@@H](NC(=O)OC)C(C)C)[nH]c54)c3)cc2)[nH]1)C(C)C [Compound 61],0.076,,0.2,5,0.06,0.005,350
COC(=O)N[C@H](C(=O)N1CC(F)C[C@H]1c1ncc(-c2ccc(-c3ccc4c(ccc5nc([C@@H]6C[Si](C)(C)CN6C(=O)[C@@H](NC(=O)OC)C(C)C)[nH]c54)c3)cc2)[nH]1)C(C)C (stereo partly drawn) [Compound 55],0.35,62,0.8,6,0.07,0.15,27
COC(=O)N[C@H](C(=O)N1C[Si](C)(C)C[C@H]1c1nc2ccc3cc(-c4ccc(-c5cnc([C@@H]6CCCN6C(=O)[C@@H](NC(=O)OC)C67CC(C(F)(F)F)(C6)C7)[nH]5)cc4)ccc3c2[nH]1)C(C)C [Compound 81],> 10,> 100,9.69,12,0.94,0.712,> 1000
CC(C)OC(=O)N[C@H](C(=O)N1CCC(F)(F)C[C@H]1c1ncc(-c2ccc(-c3ccc4c(ccc5nc([C@@H]6C[Si](C)(C)CN6C(=O)[C@@H](NC(=O)OC(C)C)C(C)C)[nH]c54)c3)cc2)[nH]1)C(C)C [Compound 88],> 100,> 1000,> 100,4000,> 1,> 10,> 1000
COC(=O)N[C@H](C(=O)N1C[Si](C)(C)C[C@H]1c1nc2ccc3cc(-c4ccc(-c5cnc([C@@H]6[C@@H]7C[C@@H]([C@@H](F)[C@H]7F)N6C(=O)[C@@H](NC(=O)OC6(C)CC6)C(C)C)[nH]5)cc4)ccc3c2[nH]1)C(C)C [Compound 101],> 100,> 1000,54.6,23,> 1,> 10,> 1000
COC(=O)N[C@H](C(=O)N1CC(C)(C)C[C@H]1c1ncc(-c2ccc(-c3ccc4c(ccc5nc([C@@H]6C[Si](C)(C)CN6C(=O)[C@@H](NC(=O)OC)C(C)C)[nH]c54)c3)cc2)[nH]1)C(C)C [Compound 78],0.137,,0.26,1,0.015,0.04,90
COC(=O)N[C@H](C(=O)N1CCS(=O)(=O)CC1c1ncc(-c2ccc(-c3ccc4c(ccc5nc([C@@H]6C[Si](C)(C)CN6C(=O)[C@@H](NC(=O)OC)C(C)C)[nH]c54)c3)cc2)[nH]1)C(C)C (stereo partly drawn) [Compound 67],0.5,,5,11,0.19,0.16,380
COC(=O)N[C@H](C(=O)N1C[Si](C)(C)C[C@H]1c1ncc(-c2ccc(-c3ccc4c(ccc5nc([C@@H]6CC(F)(F)CN6C(=O)[C@@H](NC(=O)OC)C(C)C)[nH]c54)c3)c(F)c2)[nH]1)C(C)C [Compound 58],0.36,,0.8,2,0.03,0.15,118
COC(=O)N[C@H](C(=O)N1C[Si](C)(C)C[C@H]1c1ncc(-c2ccc(-c3ccc4c(ccc5nc([C@@H]6C[C@@H](F)CN6C(=O)[C@@H](NC(=O)OC)C(C)C)[nH]c54)c3)c(F)c2)[nH]1)C(C)C [Compound 57],0.652,,0.798,< 50,0.068,0.069,50
